Earlier results as cited in patent publication US12527845B2, “Formulations” (Arecor Limited, priority 2016, dated 2026).

Details: 25° C.

SMILES	log K with respect to zinc ion binding
O=C(O)CC(O)(CC(=O)O)C(=O)O [citrate]	4.93
O=P(O)(O)OP(=O)(O)O [pyrophosphate]	8.71
NCCNCCNCCN [TETA, triethylenetetramine]	11.95
O=C(O)CN(CCOCCOCCN(CC(=O)O)CC(=O)O)CC(=O)O [EGTA, ethyleneglycoltetraacetate]	12.6
O=C(O)CN(CCN(CC(=O)O)CC(=O)O)CC(=O)O [EDTA, ethylenediaminetetraacetate]	14.5
NCCNCCN [DETA, diethylenetriamine]	8.88

Next, values leading:

log K with respect to zinc ion binding	SMILES
6.67	N[C@@H](CSSC[C@H](N)C(=O)O)C(=O)O [cystine]
9.11	N[C@@H](CS)C(=O)O [cysteine]
6.51	N[C@@H](Cc1c[nH]cn1)C(=O)O [histidine]
7.98	N[C@@H](CCC(=O)N[C@@H](CS)C(=O)NCC(=O)O)C(=O)O [glutathione]
5.69	NCCN [ethylenediamine]
4.62	N[C@@H](CCC(=O)O)C(=O)O [glutamate]
